This note sets out measurements from patent publication US10758534B2 (Vertex Pharmaceuticals Incorporated, priority 2014, dated 2020).

T1 sequence (P13569 with tags, fused parts or gaps DEL508-508): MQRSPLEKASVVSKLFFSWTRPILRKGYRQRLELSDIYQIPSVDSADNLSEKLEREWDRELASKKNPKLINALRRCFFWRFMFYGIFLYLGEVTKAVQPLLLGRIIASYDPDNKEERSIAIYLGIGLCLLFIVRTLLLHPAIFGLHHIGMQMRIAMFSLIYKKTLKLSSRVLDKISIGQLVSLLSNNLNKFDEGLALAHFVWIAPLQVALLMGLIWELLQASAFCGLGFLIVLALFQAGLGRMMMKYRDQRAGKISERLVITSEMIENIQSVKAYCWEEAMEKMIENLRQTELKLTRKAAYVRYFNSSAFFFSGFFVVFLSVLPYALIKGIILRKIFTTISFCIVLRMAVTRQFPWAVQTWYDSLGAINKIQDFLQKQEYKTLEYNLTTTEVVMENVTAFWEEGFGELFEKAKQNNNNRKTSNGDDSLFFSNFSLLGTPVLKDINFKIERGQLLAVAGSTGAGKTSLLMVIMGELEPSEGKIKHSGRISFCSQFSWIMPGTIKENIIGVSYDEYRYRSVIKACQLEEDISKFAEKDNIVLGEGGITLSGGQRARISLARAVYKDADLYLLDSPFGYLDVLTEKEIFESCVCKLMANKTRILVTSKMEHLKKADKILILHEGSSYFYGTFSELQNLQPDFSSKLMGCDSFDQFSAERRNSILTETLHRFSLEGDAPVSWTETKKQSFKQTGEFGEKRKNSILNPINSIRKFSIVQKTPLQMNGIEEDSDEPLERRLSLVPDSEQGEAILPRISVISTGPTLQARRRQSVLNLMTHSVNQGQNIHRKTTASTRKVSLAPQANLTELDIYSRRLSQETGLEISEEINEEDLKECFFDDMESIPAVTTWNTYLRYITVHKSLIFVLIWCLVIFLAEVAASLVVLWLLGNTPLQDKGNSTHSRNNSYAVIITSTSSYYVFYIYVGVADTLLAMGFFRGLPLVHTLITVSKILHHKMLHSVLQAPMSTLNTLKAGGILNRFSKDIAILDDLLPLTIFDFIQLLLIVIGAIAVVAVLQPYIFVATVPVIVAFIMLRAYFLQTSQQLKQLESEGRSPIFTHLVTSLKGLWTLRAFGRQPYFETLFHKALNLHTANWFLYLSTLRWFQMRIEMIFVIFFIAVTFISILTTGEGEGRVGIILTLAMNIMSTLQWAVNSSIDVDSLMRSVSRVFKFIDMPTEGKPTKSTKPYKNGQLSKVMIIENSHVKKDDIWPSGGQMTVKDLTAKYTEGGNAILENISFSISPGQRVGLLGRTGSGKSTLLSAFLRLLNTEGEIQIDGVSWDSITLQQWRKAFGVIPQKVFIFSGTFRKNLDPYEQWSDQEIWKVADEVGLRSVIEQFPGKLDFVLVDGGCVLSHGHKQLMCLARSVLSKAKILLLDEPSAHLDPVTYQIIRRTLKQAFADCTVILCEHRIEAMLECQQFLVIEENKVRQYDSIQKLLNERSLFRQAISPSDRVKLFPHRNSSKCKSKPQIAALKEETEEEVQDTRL

One test addresses T1, F508del (Homo sapiens, UniProt P13569, DEL508-508).
T1 construct: expressed in transfected cells
Briefly: Protocol 2: FRET membrane potential optical assay (VIPR), identification of correction compounds. The format is cell-based. The note with it: F508del CFTR modulator activity; compounds of Table 1; read-out: EC30. In a few lines: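 Single-addition HTS format: F508del-expressing NIH3T3 cells pre-incubated 16 hrs at 37° C. ± compound, with 27° C. culture as positive control. Channel activation by forskolin 10 μM and genistein 20 μM upon switch to gluconate bath, pH 7.4; read-out is FRET-based depolarization signal.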
What is called EC30 is the concentration at which the effect reaches the 30% level. With `COc1ccc(CNc2cccc(S(=O)(=O)NC(=O)c3cccnc3N3CC(C)CC3(C)C)n2)cc1OC` (stereo not drawn) [Compound 2662, N—[[6-[(3,4-dimethoxyphenyl)methylamino]-2-pyridyl]sulfonyl]-2-(2,2,4-trimethylpyrrolidin-1-yl)pyridine-3-carboxamide], the EC30 fell in the range of 3000 to 10000 nM.

Regarding `CC1CN(c2ncccc2C(=O)NS(=O)(=O)c2cccc(NC3CCCCC3C)n2)C(C)(C)C1` (stereo not drawn) [Compound 2218, N—[[6-[(2-methylcyclohexyl)amino]-2-pyridyl]sulfonyl]-2-(2,2,4-trimethylpyrrolidin-1-yl)pyridine-3-carboxamide], the 30% effect concentration (EC30) was below 3000 nM.

In the case of `Cc1ccc(O)c(-c2ccc(C(=O)NS(=O)(=O)c3cccc(N)n3)c(N3C[C@@H](C)CC3(C)C)n2)c1` [Compound 2034, N-[(6-amino-2-pyridyl)sulfonyl]-6-(2-hydroxy-5-methyl-phenyl)-2-[(4S)-2,2,4-trimethylpyrrolidin-1-yl]pyridine-3-carboxamide], the EC30 was below 3000 nM.

Still in this test, the particulars now being: Table 3; compounds of Table 1 as modulators of CFTR activity; protocol not stated.
As to `Cc1cccc(C)c1Oc1nc(C(C)(C)C)ccc1C(=O)NS(=O)(=O)c1cccc(N)c1` [Compound 286, N-(3-aminophenyl)sulfonyl-6-tert-butyl-2-(2,6-dimethylphenoxy)pyridine-3-carboxamide], the 30% effect concentration (EC30) entry is recorded as “+++ (“+++” means <3 uM)”.

Turning to `Cc1cc(C)c(Cc2nn(C(C)(C)C)cc2C(=O)NS(=O)(=O)c2cccc(N)c2)c(C)c1` [Compound 324, N-(3-aminophenyl) sulfonyl-1-tert-butyl-3-[(2,4,6-trimethylphenyl)methyl]pyrazole-4-carboxamide], the 30% effect concentration (EC30) entry was “++ (“++” means between 3 uM and 10 uM)”.

As for `CCC1(COc2nc(-c3cc(F)cc(OCC(C)C)c3)ccc2C(=O)NS(=O)(=O)c2cccc(N)n2)COC1` [Compound 618, N-[(6-amino-2-pyridyl)sulfonyl]-2-[(3-ethyloxetane-3-yl)methoxy]-6-(3-fluoro-5-isobutoxy-phenyl)pyridine-3-carboxamide], the EC30 entry is “++ (“++” means between 3 uM and 10 uM)”.

For `CC(C)COc1cc(F)cc(-c2ccc(C(=O)NS(=O)(=O)c3cccc(N)n3)c(N3CCC[C@@H]3c3ccccc3)n2)c1` [Compound 447, N-[(6-amino-2-pyridyl)sulfonyl]-6-(3-fluoro-5-isobutoxy-phenyl)-2-[(2R)-2-phenylpyrrolidin-1-yl]pyridine-3-carboxamide], the EC30 entry is “+++ (“+++” means <3 uM)”.

In the case of `Cc1cccc(-c2nc(C(C)(C)C)ccc2C(=O)NS(=O)(=O)c2cccc(N)c2)c1` [Compound 282, N-(3-aminophenyl)sulfonyl-6-tert-butyl-2-(m-tolyl)pyridine-3-carboxamide], the EC30 result was “++ (“++” means between 3 uM and 10 uM)”.

As to `Cc1cc(C)c(Oc2nc3c(cc2C(=O)NS(=O)(=O)c2cccc(N)n2)COCC3(C)C)c(C)c1` [Compound 714, N-[(6-amino-2-pyridyl)sulfonyl]-8,8-dimethyl-2-(2,4,6-trimethylphenoxy)-5,7-dihydropyrano[4,3-b]pyridine-3-carboxamide], the EC30 entry is listed as “+++ (“+++” means <3 uM)”.

For `Cc1cc(C)c(Oc2nc(-c3ccc(Cl)cc3)ccc2C(=O)NS(=O)(=O)c2ccc[nH]c2=O)c(C)c1` [Compound 579, 6-(4-chlorophenyl)-N-[(2-oxo-1H-pyridin-3-yl)sulfonyl]-2-(2,4,6-trimethylphenoxy)pyridine-3-carboxamide], the concentration for an effect of 30% (EC30) result is listed as “+++ (“+++” means <3 uM)”.

On to `CC(C)COc1ccc(-c2ccc(C(=O)NS(=O)(=O)c3cccc(N)n3)c(N3[C@H](C)CC[C@@H]3C)n2)cn1` [Compound 544, N-[(6-amino-2-pyridyl)sulfonyl]-2-[(2S,5R)-2,5-dimethylpyrrolidin-1-yl]-6-(6-isobutoxy-3-pyridyl)pyridine-3-carboxamide], for which the EC30 entry is “+++ (“+++” means <3 uM)”.

As to `CC(C)Oc1ccc(-c2ccc(C(=O)NS(=O)(=O)c3cccc(N)n3)c(N3CCCC(c4ccc(F)c(F)c4)C3)n2)cn1` (stereo not drawn) [Compound 558, N-[(6-amino-2-pyridyl)sulfonyl]-2-[3-(3,4-difluorophenyl)-1-piperidyl]-6-(6-isopropoxy-3-pyridyl)pyridine-3-carboxamide], the EC30 entry is “+++ (“+++” means <3 uM)”.
